How the values were obtained:
[1] = tested on: E. coli growth in LB media; assay: Synergy between DDAC and TTPC by flow cytometry, Example 3; details: 40 ppm of biocide, ratio DDAC:TTPC
[2] = tested on: Cultures of E. coli; assay: Viability by standard culture method (serial dilution in LB media), Example 6; type: cell-based; details: Escherichia coli, 4 hours at 37° C., n=3, ± 1 standard deviation, read-out: reduced viable bacteria (serial dilution culturing)
Description: (§1) Cultures of E. coli were left untreated or treated with tributyltetradecyl phosphonium chloride (TTPC) at 75 ppm, 150 ppm, or 300 ppm. Flow cytometry samples were prepared as described in Example 1 and triplicate culture bottles were prepared of the treated E. coli and untreated E. coli after 4 hours of incubation at 37° C. […] Viability was measured by flow cytometry and serial dilution in LB media. […] Error bars indicate 1 standard deviation. An asterisk indicates a statistically significant difference (p<0.05) and two asterisk indicates a p-value <0.01.

[3] = tested on: Cultures of E. coli; assay: Viability measured by flow cytometry, Example 6; type: cell-based; details: Escherichia coli, 4 hours at 37° C., n=3, ± 1 standard deviation, read-out: reduced viable bacteria (flow cytometry)
Description: as §1

[4] = tested on: E. coli in LB media; assay: Effect of citric acid treatment on flow cytometry viable bacteria, Examples 8-9; type: cell-based, Escherichia coli; details: concentration less than or equal to 20 mM

Row | Compound | Depolarized and Membrane-damaged/mL [1] | Depolarized/mL [1] | Membrane-damaged/mL [1] | Viable/mL [1] | inhibition at 75 ppm ([2]; 75 ppm) | inhibition at 150 ppm ([2]; 150 ppm) | inhibition at 300 ppm ([2]; 300 ppm) | inhibition at 75 ppm ([3]; 75 ppm) | inhibition at 150 ppm ([3]; 150 ppm) | inhibition at 300 ppm ([3]; 300 ppm) | effect on cell viability when analyzed by flow cytometry [4]
1 | CCCCCCCCCC[N+](C)(C)CCCCCCCCCC.[Cl-] [10:0, didecyldimethylammonium chloride] | 555000 mL⁻¹ | 1.45e+06 mL⁻¹ | 349 mL⁻¹ | 5390 mL⁻¹ |  |  |  |  |  |  | 
2 | CCCCCCCCCCCCCC[P+](CCCC)(CCCC)CCCC.[Cl-] [TTPC, tributyl tetradecyl phosphonium chloride] | 1.67e+06 mL⁻¹ | 2.54e+06 mL⁻¹ | 537 mL⁻¹ | 6330 mL⁻¹ | 99% | 100% | 100% | 97.9% | 99.7% | 100% | 
3 | O=C(O)CC(O)(CC(=O)O)C(=O)O [citric acid] |  |  |  |  |  |  |  |  |  |  | does not affect the cell viability

From US9382572B2, “Methods of determining biocide efficacy or mechanism of action using flow cytometry” (Ecolab USA Inc., priority 2013, dated 2016)
